Measured values published in PMC9851200, “Multiparameter phenotypic screening for endogenous TFEB and TFE3 translocation identifies novel chemical series modulating lysosome function” (Autophagy, 2022).

Key:
[1] = test system: TFEB; assay: Cellular fractionation and western blot of nuclear/cytoplasmic TFEB; format: cell-based; conditions: nuclear/cytoplasmic TFEB ratio, western blot
Protocol: Cells were washed with cold PBS (ThermoFisher Scientific/Gibco, 10,010–015) and lysed in RIPA buffer (0.5% Triton X-100, 10 mM Tris/HCl, pH 8.0, 1 mM EDTA (Sigma Aldrich, E6511), 0.5 mM EGTA (Sigma Aldrich, E3889), 0.1% sodium dodecyl sulfate [SDS], 0.02% sodium deoxycholate (Sigma Aldrich, D6750), and 140 mM NaCl (Sigma Aldrich, S9625) supplemented with protease-inhibitor cocktail (Sigma Aldrich/Roche, 4,693,132,001) and phosphatase inhibitors (Roche/Sigma Aldrich, 4,906,845,001) for 30 min at 4°C. The lysates were centrifuged at 13,000 g for 15 min and the supernatants collected. Protein concentration was quantified using BCA reagent (Thermofisher Scientific, 23,252) and 4× SDS Laemmli buffer was added. The samples were boiled at 95°C for 5 min before SDS-polyacrylamide gel electrophoresis (SDS-PAGE) using Mini-PROTEAN® Precast Gels (Bio-Rad, 4,568,094). Ten micrograms of protein per lane were separated by SDS/PAGE and transferred to a PVDF membrane using the Trans-Blot Turbo Transfer System (Bio-Rad, Hercules, CA, USA). […] Nuclear and cytoplasmic fractions were assessed with a LMNA/lamin A/C antibody (Santa Cruz Biotechnology, sc-7292) or GAPDH antibody (Abcam, ab9484), respectively.
Figure S5. […] (C) The levels of nuclear/cytoplasmic TFEB were quantified and presented as a ratio. […]

[2] = biological target: T1, TLK2 (Homo sapiens, UniProt Q86UE8); assay: KiNativ in-cell kinase binding, TLK2; conditions: SH-SY5Y cells
T1 construct: endogenous in cells; host or cells: SH-SY5Y
Text: (§1) As KINOMEscan is an in vitro assay, and as different cell types have variable kinase expression profiles we sought to determine the kinase binding profile in our SH-SY5Y TFEB-relocalization cell model. […] Bound kinases were pulled down and analyzed by mass spectrometry to determine the in situ kinase binding profile for each compound.

[3] = test system: CLEAR genes; assay: RT-qPCR of CLEAR gene expression; format: cell-based; conditions: SH-SY5Y, 1 µM compound, 48 h
Protocol: We assessed autophagic flux by quantifying LC3-II levels using western blotting in compound-treated cells in the presence or absence of the lysosomal inhibitor bafilomycin A1. […] Given the lack of correlation between the ability of the compounds to upregulate CLEAR genes, and changes in LC3-II levels, the action of the compounds was therefore independent of autophagic flux. SH-SY5Y cells were treated with compounds in 12-well or 24-well plates (Corning Costar, […]). Cell pellets were harvested and RNA was extracted using the RNeasy Mini Kit (QIAGEN, 74,104) according to manufacturer's instructions. cDNA was generated from 500 ng RNA using Superscript III Reverse Transcriptase (Thermofisher Scientific, 18,080,085). Expression of the CLEAR genes CTSD, HEXA, LAMP1, CLCN7, ATP6V0A1, SQSTM1, UVRAG and GABARAP were assessed using Fast SYBR Green Master Mix standard protocol (Thermofisher Scientific, 4,309,155), on a StepOnePlusTM Real-Time PCR System (Applied biosystems, Waltham, MA, USA). Primer sequences are shown in Table S7A and were designed in Primer3 or by OriGene Technologies and validated in house for efficiency and specificity.

[4] = biological target: T2, PRKD3 (Homo sapiens, UniProt O94806); assay: KiNativ in-cell kinase binding, PRKD3; design: endogenous in cells; host or cells: SH-SY5Y; conditions: for inhibition at 2 µM: SH-SY5Y cells
T2 sequence (O94806 1-890): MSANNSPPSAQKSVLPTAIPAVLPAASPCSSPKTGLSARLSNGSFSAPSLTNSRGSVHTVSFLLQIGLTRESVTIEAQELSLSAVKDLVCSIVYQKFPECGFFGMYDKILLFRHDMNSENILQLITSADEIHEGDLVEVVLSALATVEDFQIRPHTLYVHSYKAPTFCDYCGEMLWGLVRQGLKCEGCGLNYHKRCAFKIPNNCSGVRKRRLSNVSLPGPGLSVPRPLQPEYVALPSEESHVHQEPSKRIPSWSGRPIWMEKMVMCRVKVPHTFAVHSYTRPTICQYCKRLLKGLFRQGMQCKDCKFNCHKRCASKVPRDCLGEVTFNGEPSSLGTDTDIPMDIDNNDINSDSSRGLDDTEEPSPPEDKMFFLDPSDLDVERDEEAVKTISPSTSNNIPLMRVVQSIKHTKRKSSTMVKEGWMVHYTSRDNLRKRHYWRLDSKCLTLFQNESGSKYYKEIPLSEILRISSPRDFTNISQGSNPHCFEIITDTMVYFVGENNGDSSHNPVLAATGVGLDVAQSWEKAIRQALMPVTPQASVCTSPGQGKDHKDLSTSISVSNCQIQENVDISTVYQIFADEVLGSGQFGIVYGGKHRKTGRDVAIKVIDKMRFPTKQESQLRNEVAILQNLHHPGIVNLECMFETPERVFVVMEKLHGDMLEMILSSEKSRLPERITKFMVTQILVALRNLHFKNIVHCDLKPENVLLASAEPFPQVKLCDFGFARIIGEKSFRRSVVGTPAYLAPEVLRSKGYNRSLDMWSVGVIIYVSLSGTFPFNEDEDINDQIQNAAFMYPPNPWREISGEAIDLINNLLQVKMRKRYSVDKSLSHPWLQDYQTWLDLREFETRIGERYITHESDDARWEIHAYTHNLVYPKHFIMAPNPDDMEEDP
Text: as §1

[5] = biological target: MAPK9/JNK2 (Homo sapiens, UniProt P45984); format: binding
Chain of MAPK9/JNK2 (P45984 whole entry): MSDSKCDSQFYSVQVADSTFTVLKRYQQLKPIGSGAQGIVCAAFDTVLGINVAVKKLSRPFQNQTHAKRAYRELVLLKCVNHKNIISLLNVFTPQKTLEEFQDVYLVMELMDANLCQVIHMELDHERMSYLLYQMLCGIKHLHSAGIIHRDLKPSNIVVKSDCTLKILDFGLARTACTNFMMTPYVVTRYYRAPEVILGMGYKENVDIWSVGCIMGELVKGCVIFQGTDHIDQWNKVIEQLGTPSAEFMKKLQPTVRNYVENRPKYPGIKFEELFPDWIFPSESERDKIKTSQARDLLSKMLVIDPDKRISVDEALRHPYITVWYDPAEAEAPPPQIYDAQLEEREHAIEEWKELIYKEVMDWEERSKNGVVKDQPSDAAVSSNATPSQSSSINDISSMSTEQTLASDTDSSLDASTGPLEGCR

T1 sequence (Q86UE8 whole entry): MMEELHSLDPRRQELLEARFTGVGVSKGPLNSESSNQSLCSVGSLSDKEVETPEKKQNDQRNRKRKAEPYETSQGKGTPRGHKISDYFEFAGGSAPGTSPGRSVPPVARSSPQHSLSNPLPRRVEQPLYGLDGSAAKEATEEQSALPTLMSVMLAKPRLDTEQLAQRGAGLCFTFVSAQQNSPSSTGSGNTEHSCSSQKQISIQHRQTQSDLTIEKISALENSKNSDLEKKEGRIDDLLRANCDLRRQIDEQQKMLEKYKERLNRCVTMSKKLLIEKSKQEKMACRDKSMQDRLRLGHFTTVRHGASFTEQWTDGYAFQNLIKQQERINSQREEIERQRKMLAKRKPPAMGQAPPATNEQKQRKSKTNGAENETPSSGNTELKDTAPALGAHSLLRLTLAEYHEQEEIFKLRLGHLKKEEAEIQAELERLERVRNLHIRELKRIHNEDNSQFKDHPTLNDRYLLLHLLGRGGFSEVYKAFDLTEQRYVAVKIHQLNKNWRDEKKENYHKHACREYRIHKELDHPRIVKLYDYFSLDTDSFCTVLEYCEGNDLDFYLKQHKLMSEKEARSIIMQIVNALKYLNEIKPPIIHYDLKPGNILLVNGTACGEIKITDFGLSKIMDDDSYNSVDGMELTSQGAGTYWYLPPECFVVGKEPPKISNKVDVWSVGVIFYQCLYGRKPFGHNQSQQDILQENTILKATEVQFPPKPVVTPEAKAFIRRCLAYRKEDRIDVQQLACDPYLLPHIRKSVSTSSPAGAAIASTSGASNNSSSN

Row | Compound | Translocation of TFEB to the nucleus, cellular fractionation (in words) [1] | inhibition at 2 µM ([2]; Labeling Site Lys1, YVAVKIHQLNK) [%] | inhibition at 2 µM ([2]; Labeling Site Lys2, YLNEIKPPIIHYDLKPGNILLVNGTACGEIK) [%] | CLEAR gene expression (in words) [3] | inhibition at 2 µM ([4]; Labeling Site Lys1, DVAIKVIDK) [%] | inhibition at 2 µM ([4]; Labeling Site Lys2, NIVHCDLKPENVLLASAEPFPQVK) [%] | KiNativ binding of PRKD3 (in words) ([4]; SH-SY5Y cells treated 2 h) | KINOMEscan MAPK9/JNK2 [5]
1 | Cc1cccc(-c2nc(Nc3ccc4ncsc4c3)c3ccccc3n2)n1 [NK140] | increased translocation of TFEB to the nucleus | 52.7 | 50 | upregulation of a number of CLEAR genes | 71.5 | 78.5 | bound | –
2 | Cc1cccc(-c2nc(N(C)c3ccc4ncsc4c3)c3ccccc3n2)n1 [NK-161] | – | – | – | – | – | – | – | 7
